Assay [1] concerns the target T1, CK2α2β2 holoenzyme (Homo sapiens, UniProt P68400).
T1 construct: made in house; host or cells: Escherichia coli (CK2α)
Description: Olig2 phosphorylation assay (CK2β-dependent protein substrate). In kind it is biochemical. The following applies: 50 μM compound; GST-Olig-2, CK2α, increasing CK2β. The procedure: For Olig2 phosphorylation assay, GST-Olig2 fusion protein (3.7 μg) was incubated with 200 nM CK2α, in the absence or presence of 50 μM compound 1 and increasing concentrations of CK2β. Samples were analyzed by SDS PAGE and subjected to autoradiography. Phosphoproteins were quantified by densitometry scanning. For eIF2 peptide phosphorylation assay, the CK2β-dependent peptide substrate (600 μM) was incubated with CK2α (40–50 nM) and increasing concentrations of compound 1 or/and CK2β.
Fig. S3. Compound 1 inhibits CK2β-dependent phosphorylation of Olig2 transcription factor and CK2β-dependent autophosphorylation. (a) CK2α (200 nM) was incubated with increasing concentrations of CK2β in the absence or presence of compound 1 (50 μM) followed by the addition of GST-Olig2 (3.7 μg), [γ^32P]-ATP (100 μM, 1 μCi) and MgCl2 (10 mM). Samples were analyzed by SDS PAGE and subjected to autoradiography. Left and right parts of the image are from the same gel (see Supplementary Fig. S16). (b) ^32P incorporated into GST-Olig2 was determined by densitometry scanning and is expressed as arbitrary units; (c) CK2β (300 nM) was incubated with increasing concentrations of compound 1, 10 μM [γ^32P] […] Phosphorylated proteins were separated by SDS/PAGE and analyzed by autoradiography (c) or Coomassie Blue staining (d); ^32P incorporation into CK2β was quantified and expressed as arbitrary units (e). […]

Assay [2] concerns the target T2, CK2 holoenzyme (Homo sapiens, UniProt P68400).
T2 construct: made in house; host or cells: Escherichia coli (CK2α)
Description: Autophosphorylation of CK2β by CK2 holoenzyme. In kind it is biochemical. The following applies: increasing concentrations of compound. The procedure: Fig. S3. Compound 1 inhibits CK2β-dependent phosphorylation of Olig2 transcription factor and CK2β-dependent autophosphorylation. (a) CK2α (200 nM) was incubated with increasing concentrations of CK2β in the absence or presence of compound 1 (50 μM) followed by the addition of GST-Olig2 (3.7 μg), [γ^32P]-ATP (100 μM, 1 μCi) and MgCl2 (10 mM). Samples were analyzed by SDS PAGE and subjected to autoradiography. Left and right parts of the image are from the same gel (see Supplementary Fig. S16). (b) ^32P incorporated into GST-Olig2 was determined by densitometry scanning and is expressed as arbitrary units; (c) CK2β (300 nM) was incubated with increasing concentrations of compound 1, 10 μM [γ^32P] ATP and 10 mM MgCl2. Autophosphorylation was initiated by the addition of 300 nM CK2α. Phosphorylated proteins were separated by SDS/PAGE and analyzed by autoradiography (c) or Coomassie Blue staining (d); ^32P incorporation into CK2β was quantified and expressed as arbitrary units (e). Uncropped blots are shown in Supplementary Fig. S16.

The subject of assay [3] is panel of 45 recombinant protein kinases. Description: Kinase selectivity profiling, whole panel. Type of assay: biochemical, human. The following applies: focused selectivity panel of 45 kinases, 100 μM. The procedure:
Kinase selectivity of compound 1 was assessed using a panel of 45 recombinant protein kinases. The assays were performed at 10 μM ATP in the presence of 100 μM inhibitor using the Kinase profiler panel service (Millipore). Inhibition, expressed as the percent of activity determined in the absence of inhibitor, was calculated from the residual activity measured in the presence of 100 μM inhibitor.
Fig. S4. Kinase selectivity profile of compound 1 on a panel of 45 different protein kinases. The assays were performed at 10 μM ATP in the presence of 100 μM compound 1 using the Upstate Kinase Profiler Panel Service (Millipore). Residual activity in presence of 100 μM compound 1 are depicted in (a) and a graphical representation of the inhibition percentage in the presence of 100 μM compound 1 is shown in (b).

Assay [4] relates to PARP cleavage in MCF10A cells. Description: Western blot of PARP cleavage. In kind it is cell-based, human. The following applies: 24 h, 25 μM 6 or 30 μM TAT-Pc. The procedure: (§1) Figure 5 Cellular effects of compounds 3, 4 and 6. MCF10A cells were incubated for 24 h with either DMSO or 30 μM TAT or 30 μM TAT-Pc or 25 μM 6 (a) or with increasing concentrations of 6 (b) or 3 (c). MCF10A cells were incubated for 48 h with either DMSO or with increasing concentrations of 3 or 6 (d). Cells were then lysed and analyzed by western blot with the indicated antibodies. Blot images are representative of at least three independent experiments. Uncropped blots are shown in Supplementary Fig. S16. (e) MDA-MB231 cells were treated with 40 μM 6 (⚬), 4 (▴) or 3 (X). (f) MDA-MB231 cells were treated for 30 h with increasing concentrations of 6 (⚬) or 4 (▴). Insert: cells were treated for 30 h with 80 μM 6 or 10 μM CX-4945. […] Cell death was automatically quantified from images captured every 3 h for the duration of the experiments using an Essen IncuCyte Zoom live-cell microscopy incubator. […]
(§2) Cells were lysed in RIPA buffer (10 mM Tris-HCl pH 7.4, 150 mM NaCl, 1% Triton X-100, 0.1% SDS, 0.5% DOC and 1 mM EDTA) containing both protease- and phosphatase-inhibitor cocktails (Sigma-Aldrich; P8340, P2850, P5726). Cell homogenates were quantified using BCA protein Assay kit (Thermo Scientific). […] Luminata Forte Western HRP substrate (Millipore) was added and membranes were read with Fusion Fx7 (PerkinElmer). […] Images were analyzed and band intensities were quantified using ImageJ software. […]
On the technique in general: A western blot detects proteins with antibodies after separation by electrophoresis.

Assay [5] deals with survivin expression in MCF10A cells. Description: Western blot of survivin expression. In kind it is cell-based, human. The following applies: 24 h, 25 μM 6 or 30 μM TAT-Pc. The procedure:
as §1, §2

T2 sequence (P68400 whole entry): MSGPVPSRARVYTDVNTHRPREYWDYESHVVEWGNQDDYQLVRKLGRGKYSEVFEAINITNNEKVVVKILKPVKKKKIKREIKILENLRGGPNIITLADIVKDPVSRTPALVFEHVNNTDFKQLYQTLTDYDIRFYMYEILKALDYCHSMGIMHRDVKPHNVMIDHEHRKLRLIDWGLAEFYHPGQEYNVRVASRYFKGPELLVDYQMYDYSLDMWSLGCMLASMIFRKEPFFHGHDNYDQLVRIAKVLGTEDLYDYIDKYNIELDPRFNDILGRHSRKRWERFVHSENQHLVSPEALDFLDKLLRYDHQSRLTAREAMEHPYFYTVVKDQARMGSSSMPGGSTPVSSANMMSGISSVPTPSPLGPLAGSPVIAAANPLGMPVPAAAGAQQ
T1 sequence (P68400 whole entry): as above

Regarding `COc1[nH]c2ccc(F)cc2c1C(=O)OCC1CCN(CCNS(C)(=O)=O)CC1` [Compound 1], the “decrease in Olig-2 phosphorylation” value in assay [1] was ~ 50%. Also, in assay [2], the “autophosphorylation of CK2β” value is “dose-dependent decrease”. The Gini coefficient in assay [3] is given as 0.81.

Take `COc1[nH]c2ccc(F)cc2c1C(=O)OCC1CCN(CCNS(=O)(=O)c2ccccc2)CC1.Cl` [Compound 6]: the PARP cleavage entry in assay [4] is “No significant PARP cleavage”. Further, the survivin expression entry in assay [5] is recorded as “decreased”.
